# Assay results: patent US20220363673A1, “5-(Thiophen-2-YL)-1 H-Tetrazole Derivative as BCKDK Inhibitors Useful for Treating Various Diseases” (Pfizer Inc., priority 2019, published 2022)
# How the values were obtained:
# [1] = test system: Dahl salt sensitive male rats; experiment: Heart Failure Rat Model, high salt diet; format: in vivo
# Procedure: Dahl salt sensitive male rats (Charles River strain SS/JrHsdMcwiCrl) were fed control diet or 6% high salt diet (iD03121701-AIN-76a rodent diet with added 6% NaCl) for 21 weeks in total. At week 5, the high salt diet-fed rats were dosed PO with 100 mg/kg BT2 or vehicle once daily for the last 16 weeks of study. Echocardiography was performed at week 18 (myocardial performance index (MPI): control diet 0.567±0.034, high salt+vehicle 0.810±0.039, high salt+BT2 0.660±0.030; Isovolumic relaxation time (IVRT): control diet 23.154±0.60 ms, high salt+vehicle 36.507±2.20 ms, high salt+BT2 31.605±1.78 ms; Intraventricular septal thickness at diastole (IVDd): control 2.03±0.088 mm, high salt+vehicle 2.877±0.110 mm, high salt+BT2 2.489±0.089 mm). NT-pro-BNP (MSD K153JKD; control […], high salt+vehicle 1003.0±200.8 μg/mL, high salt+BT2 503.4±84.96 μg/mL), and proANP (MSD K153MBD; control 33.50±5.4 ng/mL, high salt 65.19±8.3 ng/mL, high salt+BT2 38.81±7.0 ng/mL) levels were measured in plasma using MSD assays at the terminal time point. Heart weights were measured at euthanasia and normalized to tibia length (heart/tibia control 0.033±0.001 g/mm; high salt+vehicle 0.042±0.001 g/mm, high salt+BT2 0.038±0.001 g/mm).
# human BCKDK = target: T1, human BCKDK (Homo sapiens, UniProt O14874); experiment: In Vitro FRET (TR-FRET) BCKDK activity assay, phosphorylation of BCKDHE1α-E2 fusion substrate; format: biochemical; settings: geometric mean, two significant figures; 15 μM ATP
# T1 construct: human BCKDK (residues 31-412 of the protein pre-processing); 6xHis (N, cleaved yes); MBP (N, cleaved yes); TEV protease site (ENLYFQG) (N, cleaved yes); made in house; host or cells: BL21(DE3) E. coli, co-expressed with GroEL-GroES
# Procedure: BCKDK protein was generated using a pET vector containing from N- to C-terminus: 6×His, MBP, a TEV protease site (ENLYFQG), a biotin acceptor peptide ([…]), and human BCKDK (residues 31-412 of the protein pre-processing). Protein was co-expressed with GroEL-GroES in BL21(DE3) E. coli in LB media, and protein production was induced with 0.5 mM IPTG and 0.5 mg/mL L-arabinose at an OD600 of 1 and grown for 16 h at 26° C. Bacteria were lysed using a Microfluidizer in 100 mM potassium phosphate pH 7.5, 500 mM NaCl, 0.1 mM EDTA, 1% Tween-20, 0.25% Triton X-100, 10% glycerol, 1 mM DTT, and protease inhibitors. MBP-tagged protein was purified by affinity chromatography using amylose resin, and MBP was removed from BCKDK by TEV protease incubation followed by gel filtration chromatography in 50 mM HEPES pH 7.5, 500 mM NaCl, 300 mM L-Arginine, 2 mM MgCl2, 1 mM DTT, and 10% glycerol.
# A pET vector containing E. coli LplA was expressed in BL21(DE3) E. coli in LB media, and protein production was induced with 0.75 mM IPTG at an OD600 of 1 and grown for 16 h at 30° C. Bacteria were lysed using a Microfluidizer in 50 mM sodium phosphate buffer pH 7.5, 350 mM NaCl, 1.5 mM MgCl2, and 1 mM DTT. LplA protein was precipitated from clarified lysate with 1 M ammonium sulfate and further purified by gel filtration chromatography in 50 mM sodium phosphate pH 7.5, 350 mM NaCl, 1.5 mM MgCl2, 1 mM DTT, and 10% glycerol.
# The BCKDHE1α-E2 fusion substrate was cloned into a pET vector and contained from N- to C-terminus: the lipoyl binding domain of E2 (residues 62-160 pre-processing), a TEV protease site (LENLYFQG), residues 331-345 (pre-processing) from E1α, and 6×His (Tso, S. C. et al., J Biol Chem 2014, 289 (30), 20583-20593). The fusion substrate was expressed in BL21(DE3) E. coli in LB media, and protein production was induced with 0.75 mM IPTG at an OD600 of 1 and grown for 16 h at 30° C. Bacteria were lysed using a Microfluidizer in 50 mM sodium phosphate pH 7.5, 350 mM NaCl, 10 mM imidazole, 10% glycerol, 1 mM DTT, and protease inhibitors. […] For lipoylation, fusion substrate was incubated with LplA at a 10:1 (substrate:LplA) ratio in 20 mM sodium phosphate pH 7.4, 6 mM MgCl2, 4 mM ATP, 2 mM DTT, 3 mM DL-6,8-thioctic acid at 37° C. The reaction was monitored using an Agilent 6530 Q-TOF coupled to an Agilent 1290 UPLC. The final lipoylated fusion substrate was purified by gel filtration chromatography in 50 mM HEPES pH 7.5, 350 mM NaCl, 1.5 mM MgCl2, 1 mM DTT, 10% glycerol.
# BCKDK activity was monitored by phosphorylation of a HIS-tagged fusion BCKDHE1α-E2 substrate protein as described above and was detected using a time resolved-fluorescence resonance energy transfer (TR-FRET) assay system. Compounds were spotted into a 384 well plate, and purified human BCKDK protein was added to the plated compound. After incubation, the LBD-linker-E1 phosphorylation sequence was added in the presence of 15 μM ATP. The reaction was terminated with EDTA. Phosphorylated substrate was recognized by the addition of rabbit anti-E1 phospho Ser293 antibodies (Bethyl Laboratories—A304-672A), and the TR-FRET signal was developed by addition of anti-HIS donor molecules (Europium; Perkin Elmer—AD0205, AD0110, AD0111) and anti-Rabbit acceptor molecules (Ulight; Perkin Elmer—TRF502D, TRF502M, TRF502R). Recognition of phosphorylated E1 brought donor and acceptor molecules into close proximity, and excitation at 320 nm caused energy transfer from the Europium donor to the Ulight acceptor dye, which in turn generated light at 665 nm. Signal intensity was proportional to the level of BCKDK-mediated substrate phosphorylation. Reactions were normalized to zero percent effect with DMSO and one hundred percent effect with 600 μM Radicicol, a known BCKDK inhibitor. IC50 curves were generated using ABASE software (IDBS, Boston Mass.).
# [2] = test system: phosphorylation of S293 BCKDH; experiment: Phospho BCKDHA AlphaLISA in human skeletal myocytes; format: cell-based; settings: 1 h, 60 minutes, maximal effect relative to BT2
# Procedure: Prior to conducting the assay, BCKDH antibodies (Bethyl A303-790A) were biotinylated using the ChromaLink™ One-Shot Antibody Biotinylation Kit B-9007-009K and phospho Ser293 BCKDHA antibodies (Bethyl A304-672A) were directly conjugated to AlphaLISA Acceptor Beads (custom conjugation performed by Perkin Elmer's Lance/Delfia Custom Services, Boston Mass.). Human skeletal myocytes (Gibco A11440) were plated in a 384 well plate at a density of 7500 live cells/well and grown in skeletal muscle growth media containing the media supplement and chick embryo extract (Promocell C-23060 and C-23160, MP92850145). After overnight incubation, media was removed, and BCKDK inhibitors were added in assay media (growth media diluted 10-fold in PBS). After 60 minutes, the media was removed, the cells were washed with PBS and lysed in 10 μL of buffer (Cell Signaling #9803) containing 2 nM biotinylated total BCKDH antibodies. Samples were incubated for 60 minutes, and 5 μL of AlphaLISA acceptor beads conjugated with phospho-S293 BCKDH antibodies were added 1× Alpha buffer. […] Fluorescence was emitted when the phospho and total BCKDH antibodies were within proximity, signifying phosphorylation of S293 BCKDH. Fluorescence was monitored on the Envision plate reader. The zero percent effect was determined from DMSO treatment and the maximal effect was assessed relative to the BCKDK inhibitor BT2. […]
# [3] = test system: Mice fed 60% high fat diet; experiment: Diabetic Animal Model: fasting glucose and oral glucose tolerance test; format: in vivo; settings: for fasting plasma glucose levels: mean±SEM, vehicle 185±18; for Area under the curve for the glucose tolerance test as percent of vehicle treated group: 1 g/kg dextrose, vehicle 100.0±7
# Procedure: Mice fed 60% high fat diet (Research Diets 12492) were dosed PO with Example 1 for one day, fasted overnight, and blood glucose was measured with an alpha track glucometer. The animals were dosed again PO with Example 1 the next morning, and one hour later, blood glucose was measured again immediately using an alpha track glucometer (Zoetis, Parsippany, N.J.) to assess fasting glucose levels prior to oral gavage of 1 g/kg dextrose. Blood glucose was measured 15, 30, 60, and 120 minutes after the gavage, and the data were plotted and analyzed as area under the curve using GraphPad Prism 8.0 (GraphPad Software, La Jolla, Calif.). For animals that were dosed with vehicle or Example 1 as above, mean±SEM fasting plasma glucose levels were 185±18 (vehicle, n=7), 194±14 (3 mg/kg, n=9), 160±11 (10 mg/kg, n=10), 136±9 mg/dL (30 mg/kg, n=9). Area under the curve for the glucose tolerance test as percent of vehicle treated group was 100.0±7 (vehicle, n=7), 106±9 (3 mg/kg, n=9), 99±2 (10 mg/kg, n=10), 72±4 (30 mg/kg, n=9).
smiles,measurement,setting,value
O=C(O)c1sc2cc(Cl)ccc2c1Cl [BT2],Heart weight normalized to tibia length (heart/tibia),"[1]; at euthanasia, 100 mg/kg PO once daily, control 0.033±0.001, high salt+vehicle 0.042±0.001",0.038±0.001 g/mm
same,Intraventricular septal thickness at diastole (IVDd),"[1]; echocardiography week 18, 100 mg/kg PO once daily, control 2.03±0.088, high salt+vehicle 2.877±0.110",2.489±0.089 mm
same,myocardial performance index (MPI),"[1]; echocardiography week 18, 100 mg/kg PO once daily, control diet 0.567±0.034, high salt+vehicle 0.810±0.039",0.660±0.030
same,Isovolumic relaxation time (IVRT),"[1]; echocardiography week 18, 100 mg/kg PO once daily, control diet 23.154±0.60, high salt+vehicle 36.507±2.20",31.605 ± 1.78 ms
same,proANP level in plasma,"[1]; terminal time point, 100 mg/kg PO once daily, control 33.50±5.4, high salt 65.19±8.3",38.81 ± 7.0 ng/mL
"Cc1c(Br)csc1-c1nnn[nH]1 [Example 1, 5-(4-Bromo-3-methylthiophen-2-yl)-1H-tetrazole]",IC50,human BCKDK,1.9 µM
same,IC50,[2],18 ± 2.3 µM
same,fasting plasma glucose levels,"[3]; 3 mg/kg PO, n=9",194 ± 14 mg/dL
same,Area under the curve for the glucose tolerance test as percent of vehicle treated group,"[3]; 3 mg/kg PO, n=9",106±9% of vehicle treated group
same,fasting plasma glucose levels,"[3]; 10 mg/kg PO, n=10",160 ± 11 mg/dL
same,Area under the curve for the glucose tolerance test as percent of vehicle treated group,"[3]; 10 mg/kg PO, n=10",99±2% of vehicle treated group
same,fasting plasma glucose levels,"[3]; 30 mg/kg PO, n=9",136 ± 9 mg/dL
same,Area under the curve for the glucose tolerance test as percent of vehicle treated group,"[3]; 30 mg/kg PO, n=9",72±4% of vehicle treated group
"Cc1cc(Cl)sc1-c1nnn[nH]1 [Example 9, 5-(5-Chloro-3-methylthiophen-2-yl)-1H-tetrazole]",IC50,human BCKDK,1.4 µM
same,IC50,[2],11 ± 0.87 µM
"Clc1cc(C2CC2)c(-c2nnn[nH]2)s1 [Example 29, 5-(5-chloro-3-cyclopropylthiophen-2-yl)-1H-tetrazole]",IC50,human BCKDK,10 µM
"Fc1cc(Cl)sc1-c1nnn[nH]1 [Example 30, 5-(5-chloro-3-fluorothiophen-2-yl)-1H-tetrazole]",IC50,human BCKDK,2.9 µM
"Fc1cc(Cl)c(-c2nnn[nH]2)s1 [Example 31, 5-(3-chloro-5-fluorothiophen-2-yl)-1H-tetrazole]",IC50,human BCKDK,3.6 µM
"CCc1cc(C)c(-c2nnn[nH]2)s1 [Example 32, 5-(5-ethyl-3-methylthiophen-2-yl)-1H-tetrazole]",IC50,human BCKDK,15 µM
"Cc1cc(Br)sc1-c1nnn[nH]1 [Example 33, 5-(5-bromo-3-methylthiophen-2-yl)-1H-tetrazole]",IC50,human BCKDK,3.1 µM
"Fc1cc(Br)c(-c2nnn[nH]2)s1 [Example 34, 5-(3-bromo-5-fluorothiophen-2-yl)-1H-tetrazole]",IC50,human BCKDK,2.7 µM
"Brc1ccsc1-c1nnn[nH]1 [Example 35, 5-(3-bromothiophen-2-yl)-1H-tetrazole]",IC50,human BCKDK,1.4 µM
"Cc1ccsc1-c1nnn[nH]1 [Example 36, 5-(3-methylthiophen-2-yl)-1H-tetrazole]",IC50,human BCKDK,6 µM
"Oc1ccsc1-c1nnn[nH]1 [Example 37, 2-(1H-tetrazol-5-yl)thiophene-3-ol]",IC50,human BCKDK,13 µM
